Patent US9371265B2, “Compositions and methods related to inhibitors of JAK kinase” (EP PHARMA, INC., priority 2012, dated 2016)
pIC50: −log10 of the molar value.

Key:
CSF1R = CSF1R (Homo sapiens, UniProt P07333); test: Kinase panel: CSF1R; type: biochemical; settings: 10 μM EP009
Procedure: (§1) Achieving JAK3 selectivity remains a significant challenge in the development of new small molecules for the treatment of cancer and immune-derived diseases. As such, the inventors employed cell-based screening assays of small-molecule libraries based upon the chemical scaffold of the established JAK3 inhibitor NC1153 (Stepkowski et al., J Immunol. (2005), 175(7):4236-4246) EP009 (FIG. 2A) was selected as a lead compound due to improved intrinsic stability (>95% purity in various solvents at 37° C. for 24 hours; FIG. 3) and high-degree of JAK3 selectivity. To test JAK3 versus JAK2 specificity of EP009, the IL-2/JAK3-dependent Kit225, and IL-3/JAK2-dependent BaF/3 cell lines were used. Kit225 and BaF/3 cells growing in the presence of IL-2 or IL-3, respectively, were treated with ascending concentrations of EP009 for 12 hours and cellular JAK3 and JAK2 tyrosine phosphorylation levels detected by Western blot analysis (FIGS. 2B and 2C). Following densitometric analysis, EP009 was determined to dose-dependently reduce IL-2-mediated JAK3 tyrosine phosphorylation with a cellular 50% inhibitory concentration (IC50) between 10 and 20 μM (FIG. 2B). […] To globally evaluate specificity, the inhibitory activity of EP009 was measured against a panel of protein kinases distributed throughout the kinome using the scanEDGE profiling service (KINOMEscan). […]

CSNK1D = CSNK1D (Homo sapiens, UniProt P48730); test: Kinase panel: CSNK1D; type: biochemical; settings: 10 μM EP009
Procedure: as §1

EGFR(L858R) = EGFR(L858R) (Homo sapiens, UniProt P00533, L858R); test: Kinase panel: EGFR(L858R); type: biochemical; settings: 10 μM EP009
Procedure: as §1

PLK3 = PLK3 (Homo sapiens, UniProt Q9H4B4); test: Kinase panel: PLK3; type: biochemical; settings: 10 μM EP009
Procedure: as §1

JAK3 = JAK3 (Homo sapiens, UniProt P52333); test: IL-2-mediated JAK3 tyrosine phosphorylation in Kit225 cells (IP/Western blot, densitometry); type: cell-based; parameters: cellular JAK3 and JAK2 tyrosine phosphorylation levels detected by Western blot analysis; endogenous in cells; host or cells: Kit225; settings: 12 hours, densitometric analysis, read-out: cellular IC50, IL-2-mediated JAK3 tyrosine phosphorylation
Procedure: FIGS. 2A-2F. Selective inhibition of JAK3 by EP009 results in loss of JAK3-dependent tumor cell line viability with no detectable off-target effects in key cell types. (A) Chemical structure of EP009 (M.W. 224.34). (B) Kit225 or (C) BaF/3 cells cultured in the presence of IL-2 or IL-3, respectively, were treated with vehicle (PBS; lane a) or increasing amounts of EP009 (0-50 μM; lanes b-h) for 12 hours. Cells were then lysed, clarified, and immunoprecipitated (IP) with anti-JAK3 (α-JAK3) or anti-JAK2 (α-JAK2), and subjected to Western blot (WB) analysis with anti-phosphotyrosine (α-pY). Blots were stripped and reprobed with corresponding antibody to verify equivalent protein loading. […] (E) Kit225 or BaF/3 cells were cultured with increasing amounts of EP009 (0-10 μM) for 72 hours and cell viability measured with the MTS tetrazolium salt assay. Values represent mean absorbance (OD490-OD650 nm) normalized to vehicle (PBS) treated control cells, while error bars represent the standard deviation (n=3). (F) HEK293, HEPG2, or naïve primary human PBMCs were cultured with increasing amounts of EP009 (0-10 μM) for 72 hours and cell viability measured with the MTS tetrazolium salt assay. Values represent mean absorbance (OD490-OD650 nm) normalized to vehicle (PBS) treated control cells, while error bars represent the standard deviation (n=3). […]

PLK3, sequence (Q9H4B4 whole entry): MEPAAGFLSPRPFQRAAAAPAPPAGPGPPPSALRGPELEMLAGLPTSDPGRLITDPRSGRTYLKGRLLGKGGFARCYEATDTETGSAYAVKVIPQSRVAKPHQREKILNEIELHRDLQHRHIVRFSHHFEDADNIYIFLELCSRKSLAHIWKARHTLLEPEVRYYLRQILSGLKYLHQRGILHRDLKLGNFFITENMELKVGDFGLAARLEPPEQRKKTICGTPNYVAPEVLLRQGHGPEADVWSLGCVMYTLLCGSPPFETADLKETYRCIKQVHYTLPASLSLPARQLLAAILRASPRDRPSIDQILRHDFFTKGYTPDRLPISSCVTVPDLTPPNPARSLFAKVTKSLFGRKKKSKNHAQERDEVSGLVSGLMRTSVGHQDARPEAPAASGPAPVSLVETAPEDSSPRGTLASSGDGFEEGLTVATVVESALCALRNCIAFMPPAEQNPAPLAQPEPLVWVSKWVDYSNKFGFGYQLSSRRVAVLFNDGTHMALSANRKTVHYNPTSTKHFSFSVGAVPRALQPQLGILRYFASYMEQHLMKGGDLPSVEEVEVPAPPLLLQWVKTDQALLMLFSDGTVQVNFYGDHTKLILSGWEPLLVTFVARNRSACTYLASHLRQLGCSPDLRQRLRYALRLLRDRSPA
JAK3, sequence (P52333 whole entry): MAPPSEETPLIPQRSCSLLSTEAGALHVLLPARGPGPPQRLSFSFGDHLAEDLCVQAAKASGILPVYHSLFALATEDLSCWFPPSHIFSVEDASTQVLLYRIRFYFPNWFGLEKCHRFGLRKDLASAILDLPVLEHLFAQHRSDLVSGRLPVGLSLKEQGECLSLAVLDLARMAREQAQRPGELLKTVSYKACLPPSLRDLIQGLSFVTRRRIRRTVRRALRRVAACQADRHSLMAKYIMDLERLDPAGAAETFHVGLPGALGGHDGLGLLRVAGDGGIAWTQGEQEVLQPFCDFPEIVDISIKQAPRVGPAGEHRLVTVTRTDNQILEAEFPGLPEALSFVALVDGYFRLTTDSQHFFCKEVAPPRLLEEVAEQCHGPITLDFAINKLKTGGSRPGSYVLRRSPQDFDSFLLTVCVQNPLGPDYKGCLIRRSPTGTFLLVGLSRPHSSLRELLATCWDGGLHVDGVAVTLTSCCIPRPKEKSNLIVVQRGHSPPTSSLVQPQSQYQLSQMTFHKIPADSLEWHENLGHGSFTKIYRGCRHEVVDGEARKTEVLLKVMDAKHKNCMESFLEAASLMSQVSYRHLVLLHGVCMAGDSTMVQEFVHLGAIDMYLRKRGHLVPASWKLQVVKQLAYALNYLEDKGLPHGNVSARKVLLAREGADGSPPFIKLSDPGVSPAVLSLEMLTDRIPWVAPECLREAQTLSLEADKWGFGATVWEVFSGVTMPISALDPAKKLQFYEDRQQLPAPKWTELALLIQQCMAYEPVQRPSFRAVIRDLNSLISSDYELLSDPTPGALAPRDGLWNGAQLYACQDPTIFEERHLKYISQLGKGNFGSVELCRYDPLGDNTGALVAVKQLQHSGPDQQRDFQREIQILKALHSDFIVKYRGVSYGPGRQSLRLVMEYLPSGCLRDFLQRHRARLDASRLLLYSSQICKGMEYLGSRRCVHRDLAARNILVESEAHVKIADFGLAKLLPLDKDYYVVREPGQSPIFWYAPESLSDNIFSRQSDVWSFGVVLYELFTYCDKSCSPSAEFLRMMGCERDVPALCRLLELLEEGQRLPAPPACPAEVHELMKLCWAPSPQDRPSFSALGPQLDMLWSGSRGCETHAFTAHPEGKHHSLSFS
CSNK1D, sequence (P48730 whole entry): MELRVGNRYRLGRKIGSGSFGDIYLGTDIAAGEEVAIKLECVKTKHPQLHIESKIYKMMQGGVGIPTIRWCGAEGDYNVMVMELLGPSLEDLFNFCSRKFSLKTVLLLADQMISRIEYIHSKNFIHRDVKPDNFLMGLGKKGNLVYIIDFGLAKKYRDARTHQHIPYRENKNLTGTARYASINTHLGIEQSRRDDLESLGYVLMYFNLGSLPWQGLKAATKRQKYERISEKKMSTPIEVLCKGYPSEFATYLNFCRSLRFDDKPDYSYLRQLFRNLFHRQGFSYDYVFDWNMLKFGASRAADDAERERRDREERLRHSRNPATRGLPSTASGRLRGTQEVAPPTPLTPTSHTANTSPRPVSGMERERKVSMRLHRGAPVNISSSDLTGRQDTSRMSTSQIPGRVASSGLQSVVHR
CSF1R, sequence (P07333 20-972): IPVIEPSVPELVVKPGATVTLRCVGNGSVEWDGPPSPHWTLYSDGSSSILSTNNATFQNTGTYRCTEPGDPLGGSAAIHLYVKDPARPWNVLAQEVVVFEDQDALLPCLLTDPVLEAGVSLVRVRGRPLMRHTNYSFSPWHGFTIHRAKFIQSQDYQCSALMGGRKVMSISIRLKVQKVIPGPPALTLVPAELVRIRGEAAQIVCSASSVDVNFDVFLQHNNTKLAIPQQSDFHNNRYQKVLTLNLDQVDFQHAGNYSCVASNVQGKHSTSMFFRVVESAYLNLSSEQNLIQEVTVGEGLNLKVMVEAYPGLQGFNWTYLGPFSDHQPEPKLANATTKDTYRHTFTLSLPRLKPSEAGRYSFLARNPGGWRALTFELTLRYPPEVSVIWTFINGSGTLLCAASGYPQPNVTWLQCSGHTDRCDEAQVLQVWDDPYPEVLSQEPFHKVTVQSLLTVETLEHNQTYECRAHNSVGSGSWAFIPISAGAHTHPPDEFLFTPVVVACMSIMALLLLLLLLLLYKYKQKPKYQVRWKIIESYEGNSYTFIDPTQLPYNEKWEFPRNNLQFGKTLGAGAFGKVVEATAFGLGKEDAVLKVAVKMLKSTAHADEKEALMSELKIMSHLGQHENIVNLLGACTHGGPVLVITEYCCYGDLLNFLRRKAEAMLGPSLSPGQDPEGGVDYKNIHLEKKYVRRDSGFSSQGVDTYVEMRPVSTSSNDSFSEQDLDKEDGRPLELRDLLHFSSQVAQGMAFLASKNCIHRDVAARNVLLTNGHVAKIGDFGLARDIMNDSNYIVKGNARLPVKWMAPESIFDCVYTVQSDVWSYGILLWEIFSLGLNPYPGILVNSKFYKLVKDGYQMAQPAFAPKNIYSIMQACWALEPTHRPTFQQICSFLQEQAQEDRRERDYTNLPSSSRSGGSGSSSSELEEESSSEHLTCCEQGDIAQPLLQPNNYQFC

## C=C1CCCCCCCCCC(CO)C1=O (centres unmarked) [EP009, 2-(Hydroxymethyl)-12-methylenecyclododecanone]
CSF1R
  Kinase Activity (% of Control): 94 % of Control
CSNK1D
  Kinase Activity (% of Control): 100 % of Control
EGFR(L858R)
  Kinase Activity (% of Control): 100 % of Control
PLK3
  Kinase Activity (% of Control): 92 % of Control
JAK3
  pIC50: 4.70 to 5.00
